Measured values as given in patent publication US6866845B1, “Compositions and methods for the treatment of sepsis” (The Regents of the University of Michigan, priority 1999, dated 2005).
Where no end group is shown, it is not given here.

B1: MLQKKIEEIAAKYKHSVVKKCCYDGASVNNDETCEQRAARISLGPRCIKAFTECCVVASQLRANISHKDMQLGR (protein, listed as Homo sapiens)
chain: MLQKKIEEIAAKYKHSVVKKCCYDGASVNNDETCEQRAARISLGPRCIKAFTECCVVASQLRANISHKDMQLGR
notes: full length human complement component C5a peptide

Columns and labels:
[1] = system: human neutrophils; test: chemotaxis of human neutrophils in chemotactic chambers; assay type: cell-based; details: for chemotactic activity of KLH conjugate compared to C5a peptide: calculated synthetic peptide concentration 100 nM, peptide:KLH approximately 3:1; for chemotactic response to peptide in medium alone: 1 μM peptide; for reduction in the chemotactic responses of neutrophils to human C5a: 1 μM peptide with 10 μM human C5a
Experimental: This Example describes the ability of certain synthetic peptides representative of regions of human C5a peptide to reduce the chemotactic response of human neutrophils to human C5a peptide. Human neutrophils were isolated from human blood by traditional Ficoll-Hypaque sedimentation techniques. Using standardized methodology, neutrophils (5×10^6/ml) labeled with 1 μg/ml BCECF [2′,7′-(2 carboxyethyl)-5-(and-6)-carboxyfluroscein, acetoxymethy ester) at 37° C. for 30 min, were applied to the upper compartments of […] The two compartments were separated by a membrane with pore sizes of 3 μm. Neutrophil chemotactic responses were quantitated by cytofluorometry.
[…] Peptide A (SEQ ID NO:4) represents residues 1-20 of human C5a peptide, peptide M (SEQ ID NO: 5) represents residues 21-40 of human C5a peptide, and peptide C (SEQ ID NO:6) represents residues 55-74 of human C5a peptide.
This Example describes neutrophil chemotactic activity of peptides A, M, and C linked to keyholelimpet hemocyanin (KLH) employing the chemotactic assay described in Example 7. The peptide:KLH molar ratios employed were approximately 3:1. […]

[2] = system: human neutrophils; test: H2O2 production of human neutrophils stimulated by PMA; assay type: cell-based; details: for inhibition of PMA-elicited H2O2 response: neutrophils pretreated with peptide, then PMA
Text: This Example describes the effect of human C5a peptide, and certain shorter synthetic human C5a peptides A, M, or C, to inhibit the H2O2 production of human neutrophils stimulated by phorbol myristate acetate (PMA). Again, peptide A (SEQ ID NO:4) represents residues 1-20 of human C5a peptide, peptide M (SEQ ID NO: 5) represents residues 21-40 of human C5a peptide, and peptide C (SEQ ID NO:6) represents residues 55-74 of human C5a peptide. Human neutrophils were isolated and then pretreated with C5a peptide or one of the shorter synthetic peptides (A, M, or C). Cells were then stimulated with PMA and the production of H2O2 was measured.

[3] = system: human neutrophils; test: competition with 125I-hC5a peptide binding to human neutrophils; details: ratio of peptide to labelled hC5a 10:1
Text: This Examples describes certain peptides which are able to antagonize the ability of human C5a peptide to bind to human neutrophils. Three different peptides, labelled A, M, and C, were used to antagonize the binding of ^125I-hC5a peptide to human neutrophils. Again, peptide A (SEQ ID NO:4) represents residues 1-20 of human C5a peptide, peptide M (SEQ ID NO: 5) represents residues 21-40 of human C5a peptide, and peptide C (SEQ ID NO:6) represents residues 55-74 of human C5a peptide.
Human peripheral blood neutrophils (1×10^7 cells/ml) were incubated in Hank's buffered saline plus 0.1% bovine serum albumin with both ^123]-labelled hC5a peptide (300 μCi/nmol) and either peptide A, M, or C, in a final volume of 200 μl in a microfuge tube. The ratio of the shorter peptides (A, M, or C) to ^1251]-labelled hC5a peptide was 10:1. After incubation, cell suspension were layered over a 20% sucrose gradient and were sedimented by centrifugation at 11,000 g. The tubes were then frozen on dry ice, followed by cutting the tips containing the pellet. Cell-bound label was then determined by placing the tips in a gamma counter.

[4] = molecular target: human peripheral blood neutrophils (surface sites that bind human C5a peptide) (human) (UniProt P21730); test: cell-based or functional assay
[5] = molecular target: rat C5a peptide (full length) (rat) (UniProt P08650); test: flow cytometry on rat blood neutrophils, control stain
Chain of UniProt P08650 (P08650 679-755 limits assumed): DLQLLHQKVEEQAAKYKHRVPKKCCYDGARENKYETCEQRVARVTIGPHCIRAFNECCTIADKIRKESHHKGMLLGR

Chain of UniProt P21730 (P21730 whole entry): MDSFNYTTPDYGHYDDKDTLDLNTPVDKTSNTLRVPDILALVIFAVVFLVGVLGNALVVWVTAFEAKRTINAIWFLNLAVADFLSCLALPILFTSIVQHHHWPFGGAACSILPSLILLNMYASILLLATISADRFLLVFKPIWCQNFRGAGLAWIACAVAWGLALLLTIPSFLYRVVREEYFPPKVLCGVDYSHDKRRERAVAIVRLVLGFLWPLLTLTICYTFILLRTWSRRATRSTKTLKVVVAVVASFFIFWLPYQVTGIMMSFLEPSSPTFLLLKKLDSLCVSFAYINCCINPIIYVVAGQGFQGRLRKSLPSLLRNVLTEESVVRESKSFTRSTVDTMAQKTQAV

Molecule	chemotactic activity of KLH conjugate compared to C5a peptide [1]	inhibition of PMA-elicited H2O2 response [2]	reducing the binding of hC5a peptide to human neutrophils [3]	chemotactic response to peptide in medium alone [1]	reduction in the chemotactic responses of neutrophils to human C5a [1]	other results
A peptide KLH conjugate: peptide A (SEQ ID NO:4) linked to keyhole limpet hemocyanin, peptide:KLH approximately 3:1 (MLQKKIEEIAAKYKHSVVKK; also: linked to keyhole limpet hemocyanin, peptide:KLH ~3:1)	most chemotactically active					
C peptide conjugate: peptide C (SEQ ID NO:6) linked to keyhole limpet hemocyanin, peptide:KLH approximately 3:1 (CVVASQLRANISHKDMQLGR; also: linked to keyhole limpet hemocyanin, peptide:KLH ~3:1)	almost as active					
CCYDGASVNNDETCEQRAAR (listed as Homo sapiens) [peptide M, residues 21-40 of human C5a peptide]		strongest suppression	significantly (p<0.05) competitive	did not per se induce any chemotactic responses	approximately 20%	
CVVASQLRANISHKDMQLGR (listed as Homo sapiens) [peptide C, residues 55-74 of human C5a peptide]		to varying degrees	no statistically significant interference	did not per se induce any chemotactic responses	approximately 20%	
M peptide conjugate: peptide M (SEQ ID NO:5) linked to keyhole limpet hemocyanin, peptide:KLH approximately 3:1 (CCYDGASVNNDETCEQRAAR; cysteine pairing not given here; also: linked to keyhole limpet hemocyanin, peptide:KLH ~3:1)	no chemotactic activity					
MLQKKIEEIAAKYKHSVVKK (listed as Homo sapiens) [peptide A, residues 1-20 of human C5a peptide]		to varying degrees	significantly (p<0.05) competitive	did not per se induce any chemotactic responses	approximately 20%	
peptide C (residues 55-74 of human C5a peptide)						chemotactic responses of neutrophils to human C5a [4]: 20%
preimmune IgG (antibody)						Mean Channel Fluorescence (binding value) (MCF (mean ± SEM)) [5]: 4.45
B1		inhibitable				effect on H2O2 production, peptide alone ([2]; without PMA): no effect
